Data taken from patent US20260224563A1, “CRYSTALLINE FORMS OF 6-(3-((5-CHLORO-2-METHOXYPYRIDINE)-3-SULFONAMIDO)-2,6-DIFLUOROPHENYL)-N-METHYLIMIDAZO[1,5-A]PYRAZINE-1-CARBOXAMIDE AND METHODS FOR USING THE SAME” (HIBERCELL, INC., priority 2023, published 2026).
Counter-ions that a name gives are not always drawn. Like-named read-outs stand apart in the source and are kept apart here. Values belong to the compound of their own block, whether it stands above or below them.

Legend:
[1] = Pharmacokinetics of HC-7366 in male and female beagle dogs following IV and oral administration of HC-7366-K (plasma and urine, LC-MS/MS); assay type: in vivo, Beagle Dog; parameters: AUC(0-t)/D: unit not given here
[2] = Solubility testing in organic solvents and water (visual, room temperature); assay type: physicochemical
[3] = Solubility in simulated biological fluid (FaSSGF and FaSSIF) at 37° C., HPLC; pH of filtrate, XRPD of filter cake; assay type: physicochemical; conditions: for times more soluble than the free acid (Form II): 0.5-hour mark; for pH (0 h) / Concentration / pH (24 h) / XRPD (filter cake, crystal form): 37° C.; for Concentration / pH (24 h) / XRPD (filter cake, crystal form): listed as K salt Form III; for pH (24 h): filtrate; for XRPD (filter cake, crystal form): up to 24 hours
Protocol: (§1) Approximately between 15 mg and 24 mg of sample was suspended in 5 mL or 8 mL of FaSSGF or FaSSIF, respectively. The resulting suspension was shaken at 700 rpm with a QQMSC-100 shaker at 37° C. The suspension was sampled and filtered at certain time intervals, which was achieved by sampling 1000 μL of each suspension which was then filtered and diluted, diluting the resulting filtrate for HPLC analysis to assess solubility. The pH of the filtrate was measured, and the filter cake was analyzed by XRPD.
as §1, with “Approximately” for “Approximately between”, “mg to” for “mg and”, “5” for “5 mL”, “suspension” for “suspension which”, “was” for “was then”
Approximately 15 mg to 24 mg of sample was suspended in 5 or 8 mL of FaSSGF or FaSSIF, respectively. The resulting suspension was shaken at 700 rpm with a QQMSC-100 shaker at 37° C. The suspension was sampled and filtered in certain time interval, which was achieved by sampling 1000 μL of each suspension was filtered and diluted, diluting the resulting filtrate for HPLC analysis to assess solubility. The pH of the filtrate was measured, and the filter cake was analyzed by XRPD.

[4] = Dynamic vapor sorption (DVS); assay type: physicochemical; conditions: for DVS weight gain: 25° C., listed as Form III of the potassium salt
Protocol: Moisture sorption/desorption data was collected on a Vsorp Dynamic Moisture Sorption Analyzer (ProUmid GmbH & Co. KG, Germany). The sample was placed into a tared sample chamber and automatically weighed.
• Equilibrium Condition: 0.01%/40 min • Time between weighing cycles: 10 minutes • Minimum time per climate cycle: 50 minutes • Maximum time per climate cycle: 2.0 hour • Balanced condition: 25° C. at 60% […] for 4 hours • Sample temperature: 25° C. • Adsorption: 70, 80, 90 • Desorption: 80, 70, 60, 50, 40, 30, 20, 10, 0 • Adsorption: 10, 20, 30, 40, 50, 60

[5] = Water activity study of the crystalline potassium salt forms (acetone/water suspension, XRPD); assay type: physicochemical; conditions: KF wt. %>0.19, 25-50° C., KF wt. %~0.1, 25° C. in acetone/water
Protocol: A water activity study of the potassium salt forms was conducted in two groups: (i) Form I and Form III of the potassium salt, and (ii) Form II and Form III of the potassium salt.
Each suspension was shaken at 700 rpm in a shaker at 25° C., 35° C., 45° C., and 50° C., and the sample was analyzed by XRPD.

[6] = Slurry study of potassium salt Form III in organic solvents and water (XRPD); assay type: physicochemical
Protocol: A slurry study of Form III of the potassium salt in an array of solvents was conducted at 25° C. and 50° C. Approximately 20 mg of Form III of the potassium salt was suspended in 0.5 mL of a solvent (EtOH, IPA, NBA, MEK, acetone, MTBE, EtOAc, IPAc, heptane, DCM, THE, MeCN, and water) and stirred at 25° C. or 50° C. for seven days. Then, the solid sample was collected by vacuum filtration and was analyzed by XRPD.

[7] = as above; assay type: physicochemical; conditions: for Result at 3 days (XRPD): slurry in THF

- AUC(0-t)/D ([1]; Female Beagle dog, IV 0.5 mg/kg, mean n = 3): 162284
- t1/2 ([1]; Male Beagle dogs, IV 0.5 mg/kg, HC-7366 in plasma, mean n = 3): 14 h
- clearance ([1]; dog, plasma, male beagle dogs, intravenous 0.5 mg/kg, read-out: Clearance (CL)): 0.1 mL/min/kg
- Vd ([1]; dog, plasma, male beagle dogs, intravenous 0.5 mg/kg, read-out: volume of distribution at steady state (Vss)): 0.107 L/kg
- CL renal ([1]; dog, urine and plasma, female Beagle dogs, intravenous 0.5 mg/kg, read-out: Renal Clearance): 0.158 mL/day/kg
Compound: CNC(=O)c1ncn2cc(-c3c(F)ccc(NS(=O)(=O)c4cc(Cl)cnc4OC)c3F)ncc12 [HC-7366-K, 6-(3-((5-chloro-2-methoxypyridine)-3-sulfonamido)-2,6-difluorophenyl)-N-methylimidazo[1,5-a]pyrazine-1-carboxamide]

- Solubility ([2]; Acetone, listed as Form III of the Potassium Salt): ~0.5 mg/mL
- Solubility ([2]; BuOH, 24 °C, organic solvent or mixture, thermodynamic from solid, BuOH, read-out: Solubility): < 0.1 mg/mL
- Solubility ([2]; DCM, listed as Form III of the Potassium Salt): <0.1 mg/mL
- Solubility ([2]; DMSO, 24 °C, organic solvent or mixture, thermodynamic from solid, DMSO, read-out: Solubility): > 180 mg/mL
- Solubility ([2]; DMSO, listed as Form III of the Potassium Salt): >180 mg/mL
- Solubility ([2]; EtOAc, listed as Form III of the Potassium Salt): <0.1 mg/mL
- Solubility ([2]; EtOH, listed as Form III of the Potassium Salt): ~4 mg/mL
- Solubility ([2]; H2O (water), listed as Form III of the Potassium Salt): ~1 mg/mL
- Solubility ([2]; IPA, listed as Form III of the Potassium Salt): <0.1 mg/mL
- Solubility ([2]; IPAc, listed as Form III of the Potassium Salt): <0.1 mg/mL
- Solubility ([2]; MEK, listed as Form III of the Potassium Salt): <0.1 mg/mL
- Solubility ([2]; MTBE, 24 °C, organic solvent or mixture, thermodynamic from solid, MTBE, read-out: Solubility): < 0.1 mg/mL
- Solubility ([2]; MeCN, listed as Form III of the Potassium Salt): <0.1 mg/mL
- Solubility ([2]; MeOH, listed as Form III of the Potassium Salt): >40 mg/mL
- Solubility ([2]; MeOH, listed as Form III of the potassium salt): > 40 mg/mL
- Solubility ([2]; THF, listed as Form III of the Potassium Salt): <0.1 mg/mL
- Solubility ([2]; heptane, 24 °C, organic solvent or mixture, thermodynamic from solid, Heptane, read-out: Solubility): < 0.1 mg/mL
- times more soluble than the free acid (Form II) ([3]; FaSSGF): about 230 times
- pH (0 h) ([3]; FaSSGF): 1.60
- Concentration ([3]; FaSSGF, 0.5 h): 46.8 µg/mL
- Concentration ([3]; FaSSGF, 2.0 h): 4.6 µg/mL
- pH (24 h) ([3]; FaSSGF): 1.66
- XRPD (filter cake, crystal form) ([3]; FaSSGF): Changed
- times more soluble than the free acid (Form II) ([3]; FaSSIF): about 100 times
- pH (0 h) ([3]; FaSSIF): 6.50
- Concentration ([3]; FaSSIF, 0.25 h): 155 µg/mL
- Concentration ([3]; FaSSIF, 0.5 h): 164 µg/mL
- Concentration ([3]; FaSSIF, 0.75 h): 160 µg/mL
- Concentration ([3]; FaSSIF, 1.0 h): 155 µg/mL
- Concentration ([3]; FaSSIF, 2.0 h): 14.5 µg/mL
- pH (24 h) ([3]; FaSSIF): 6.83
- XRPD (filter cake, crystal form) ([3]; FaSSIF): Changed
- DVS weight gain ([4]; 0 to 80% relative humidity): around 0.18%
- DVS weight gain ([4]; 0 to 90% relative humidity): ~0.23%
- DVS weight gain ([4]; 60 to 80% relative humidity): around 0.13%
- Relative stability of crystalline forms ([5]; versus Form I of the potassium salt): more stable
- Relative stability of crystalline forms ([5]; versus Form II of the potassium salt): more stable
- Result at 3 days (XRPD) ([6]; slurry in Acetone, 25° C.): Potassium salt Form III
- Result at 7 days (XRPD) ([6]; slurry in Acetone, 25° C.): Potassium salt Form III
- Result at 3 days (XRPD) ([6]; slurry in DCM, 25° C.): Potassium salt Form III
- Result at 7 days (XRPD) ([6]; slurry in DCM, 25° C.): Potassium salt Form III
- Result at 3 days (XRPD) ([6]; slurry in DCM, 50° C.): Potassium salt Form III
- Result at 7 days (XRPD) ([6]; slurry in DCM, 50° C.): Potassium salt Form III
- Result at 3 days (XRPD) ([6]; slurry in EtOAc, 25° C.): Potassium salt Form III
- Result at 7 days (XRPD) ([6]; slurry in EtOAc, 25° C.): Potassium salt Form III
- Result at 3 days (XRPD) ([6]; slurry in EtOAc, 50° C.): Potassium salt Form III
- Result at 7 days (XRPD) ([6]; slurry in EtOAc, 50° C.): Potassium salt Form III
- Result at 3 days (XRPD) ([6]; slurry in Heptane, 25° C.): Potassium salt Form III
- Result at 7 days (XRPD) ([6]; slurry in Heptane, 25° C.): Potassium salt Form III
- Result at 3 days (XRPD) ([6]; slurry in Heptane, 50° C.): Potassium salt Form III
- Result at 7 days (XRPD) ([6]; slurry in Heptane, 50° C.): Potassium salt Form III
- Result at 3 days (XRPD) ([6]; slurry in IPA, 25° C.): Potassium salt Form III
- Result at 7 days (XRPD) ([6]; slurry in IPA, 25° C.): Potassium salt Form III
- Result at 3 days (XRPD) ([6]; slurry in IPA, 50° C.): Potassium salt Form I
- Result at 7 days (XRPD) ([6]; slurry in IPA, 50° C.): Potassium salt Form I
- Result at 3 days (XRPD) ([6]; slurry in IPAc, 25° C.): Potassium salt Form III
- Result at 7 days (XRPD) ([6]; slurry in IPAc, 25° C.): Potassium salt Form III
- Result at 3 days (XRPD) ([6]; slurry in IPAc, 50° C.): Potassium salt Form III
- Result at 7 days (XRPD) ([6]; slurry in IPAc, 50° C.): Potassium salt Form III
- Result at 3 days (XRPD) ([6]; slurry in MEK, 25° C.): Potassium salt Form III
- Result at 7 days (XRPD) ([6]; slurry in MEK, 25° C.): Potassium salt Form III
- Result at 3 days (XRPD) ([6]; slurry in MEK, 50° C.): Potassium salt Form III
- Result at 7 days (XRPD) ([6]; slurry in MEK, 50° C.): Potassium salt Form III
- Result at 3 days (XRPD) ([6]; slurry in MTBE, 25° C.): Potassium salt Form III
- Result at 7 days (XRPD) ([6]; slurry in MTBE, 25° C.): Potassium salt Form III
- Result at 3 days (XRPD) ([6]; slurry in MTBE, 50° C.): Potassium salt Form III
- Result at 7 days (XRPD) ([6]; slurry in MTBE, 50° C.): Potassium salt Form III
- Result at 3 days (XRPD) ([6]; slurry in MeCN, 25° C.): Potassium salt Form III
- Result at 7 days (XRPD) ([6]; slurry in MeCN, 25° C.): Potassium salt Form III
- Result at 3 days (XRPD) ([6]; slurry in MeCN, 50° C.): Potassium salt Form I
- Result at 7 days (XRPD) ([6]; slurry in MeCN, 50° C.): Potassium salt Form I
- Result at 3 days (XRPD) ([6]; slurry in NBA, 25° C.): Potassium salt Form III
- Result at 7 days (XRPD) ([6]; slurry in NBA, 25° C.): Potassium salt Form III
- Result at 3 days (XRPD) ([6]; slurry in NBA, 50° C.): Potassium salt Form III
- Result at 7 days (XRPD) ([6]; slurry in NBA, 50° C.): Potassium salt Form III
- Result at 7 days (XRPD) ([6]; slurry in THF, 25° C.): Potassium salt Form III
- Result at 7 days (XRPD) ([6]; slurry in THF, 50° C.): Potassium salt Form III
- Result at 3 days (XRPD) ([7]; 25° C.): Potassium salt Form III
- Result at 3 days (XRPD) ([7]; 50° C.): Potassium salt Form III
- Result (XRPD) ([7]; slurry in Water, 25° C., 5 days, repeated aqueous slurry experiments): Potassium salt Form III (5 days)
Compound: CNC(=O)c1ncn2cc(-c3c(F)ccc(NS(=O)(=O)c4cc(Cl)cnc4OC)c3F)ncc12 [Potassium salt Form III, 6-(3-((5-chloro-2-methoxypyridine)-3-sulfonamido)-2,6-difluorophenyl)-N-methylimidazo[1,5-a]pyrazine-1-carboxamide]
- Hygroscopicity (DVS) ([4]; class by weight gain to 80% relative humidity): non-hygroscopic (non-hygroscopic may be defined as a <0.2% weight gain to 80% relative humidity)
